{
  "source": "paper PMC11212140",
  "about": "“Molecular Bidents with Two Electrophilic Warheads as a New Pharmacological Modality” (ACS Central Science, 2024)",
  "key": {"EGFR": {"test_system": "T1, EGFR", "T1 construct": "expressed in transfected cells; host or cells: Ba/F3 (murine pro-B cells transduced with an EGFR mutant expression vector)", "experiment": "Cellular target engagement assays (competitive pulldown)", "type": "cell-based", "settings": "EGFR^L858R Ba/F3 cells, 6 h pretreatment", "experimental": "Figure 4 ZNL-0056 covalently engages Cys775 and Cys797 in EGFR Ba/F3 cells. (A) Carton of competition EGFR pulldown strategy to test covalent EGFR engagement in cells. (B) Competitive pulldown assay in EGFR^L858R Ba/F3 cells treated with ZNL-0056 at the indicated concentrations for 6 h. Cell lysates were incubated with bio-osimertinib. (C) Competitive pulldown assay in EGFR^L858R Ba/F3 cells treated with ZNL-0056 at the indicated concentrations for 6 h. Cell lysates were incubated with bio-ZNL-0013, which competes for the binding pocket of the target kinase. (D) Competitive pulldown assay in EGFR^L858R/C797S Ba/F3 cells treated with ZNL-0056 at the indicated concentrations for 6 h. Cell lysates were incubated with bio-ZNL-0013, which competes for the binding pocket of the target kinase. Western blotting showing the pulldown (PD) or input (total lysate) of EGFR. […]\n(§1) treatment. Cell viability was determined by using CellTiter-Glo (Promega #G7571) according to the manufacturer’s instructions, measuring luminescence using an Envision plate-reader (PerkinElmer Inc.). […]\n(§2) After 6 hours treatment, cells were pelleted, washed with PBS once and lysed with IP lysis buffer (25mMTris-HCl pH 7.4, 150mM NaCl, 1 mM EDTA, 1% NP-40 and 5% glycerol) (Thermo Fisher Scientific, Cat#87788) containing protease/phosphatase inhibitor cocktail (Roche). The protein concentrations were measured by BCA analysis (Pierce). […]"}, "[1]": {"test_system": "EGFR^L858R/C775S Ba/F3 cells", "experiment": "Antiproliferation assay (CellTiter-Glo)", "type": "cell-based", "settings": "vs EGFR^L858R Ba/F3", "experimental": "Figure S6 Dose-response curves for the indicated compounds in EGFRL858R, EGFRL858R/C797S, and EGFRL858R/C775S Ba/F3 cells following 72 h of treatment. Cell viability was assessed with CellTiter-Glo.\nData are presented as the mean ± SEM (n = 4). Representative data from three independent experiments\n(§3) (1 picture or pasted object on this page, not shown here)\nFor infection of Ba/F3 cells, 2.5 mL of viral supernatant and 8 μg/mL polybrene was added to 2.5 million cells per well in six-well plates. The plate was centrifuged at 2500 rpm for 90 minutes at 37 °C for the spin infection. Then, virus-containing medium was removed 48 hours later and successfully infected cells were selected with the addition of 1 μg/mL puromycin to the medium.\nAfter 3 days, cells were transferred into the fresh medium without IL-3 and puromycin. IL-3-independent transformed cells were maintained in RPMI medium 1640 supplemented with 10%\nFBS. Expression of EGFR was examined by Western blot.\nImmunoblotting and antibodies\nCells were lysed in RIPA buffer (150 mM NaCl, 1.0% IGEPAL® CA-630, 0.5% sodium deoxycholate, 0.1% SDS, 50 mM Tris, pH 8.0) (Sigma, Cat# R0278) with protease inhibitor and phosphatase inhibitor (Roche). The protein concentrations were measured by BCA analysis (Thermo Fisher Scientific, Cat # PI23225). […]\nor IRDye 680RD goat anti-Mouse IgG (LICOR Biosciences , Cat # 926-68070) secondary antibodies at room temperature for 1 hour. The membranes were detected on Odyssey CLx system. […]\nas §1, §2"}, "MEK5": {"target": "MEK5 (Homo sapiens, UniProt Q13163)", "sequence (Q13163 whole entry, species assumed)": "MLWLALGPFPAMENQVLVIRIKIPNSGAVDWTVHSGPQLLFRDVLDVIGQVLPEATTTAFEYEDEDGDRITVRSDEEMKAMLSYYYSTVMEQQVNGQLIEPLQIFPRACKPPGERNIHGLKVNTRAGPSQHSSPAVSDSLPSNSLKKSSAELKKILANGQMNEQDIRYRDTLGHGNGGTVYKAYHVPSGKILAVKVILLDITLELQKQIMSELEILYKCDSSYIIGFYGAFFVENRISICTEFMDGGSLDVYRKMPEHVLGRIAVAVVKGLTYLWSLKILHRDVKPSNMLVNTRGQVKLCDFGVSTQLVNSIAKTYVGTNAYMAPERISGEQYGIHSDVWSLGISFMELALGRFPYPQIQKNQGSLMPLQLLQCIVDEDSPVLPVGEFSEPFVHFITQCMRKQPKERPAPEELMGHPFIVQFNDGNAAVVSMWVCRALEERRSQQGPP", "experiment": "LanthaScreen Binding activity assay", "settings": "read-out: IC50 (nM) against MEK5", "source_text": "Table S2. Biochemical activities against a panel of kinase targets […]\naIC50 (nM) against EGFR L858R, BTK, JAK3, ITK and BLK were obtained with Z’-LYTE biochemical assay. bIC50 (nM) against MEK5 was obtained with LanthaScreen Binding activity assay. c Kd (nM) of MKK7 were obtained from KdELECT assays (DiscoverX). […]\nas §3"}},
  "data": [
    {"smiles": "C=CC(=O)Nc1cc(C(=O)Nc2nc3cccc(C)c3n2[C@@H]2CCCCN(C(=O)C=C)C2)cs1", "note": "[ZNL-0056]", "values": [
      {"measurement": "prevention of EGFR binding to osimertinib-biotin target-engagement probe", "setting": "EGFR", "value": "dose-dependent manner"},
      {"measurement": "potency loss (shift) in the EGFR^L858R/C775S mutant", "setting": "[1]", "value": 2, "unit": "fold"},
      {"measurement": "IC50", "setting": "MEK5", "value": 2500, "unit": "nM"}
    ]}
  ]
}
